Earlier results on one compound are cited in patent US20060148728A1 (priority 2000, published 2006).

The conditions of the series: in vivo; cited from earlier work.

In the case of `COc1cc([C@@H]2c3cc4c(cc3[C@@H](O[C@@H]3O[C@@H]5CO[C@@H](C)O[C@H]5[C@H](O)[C@H]3O)[C@H]3COC(=O)[C@H]23)OCO4)cc(OC)c1O` [Etoposide], the “Bioavailability of oral etoposide” value is reported as 40-75%.
